Data: US9505796B2, “Phosphorylated A2A receptor agonists” (Crozet Medical GMBH, priority 2006, dated 2016)

Columns and labels:
[1] = test system: wire-injured carotid arteries of WT and CD73−/− mice; experiment: Mouse model of carotid artery injury, neointima formation; assay type: in vivo; settings: 4 weeks after injury, continuous infusion 0.004 μg/kg per minute
Excerpt: Male, 6-12 week old CD73^−/− or WT NMRI mice (n=6-8) were left untreated or fed an atherogenic diet containing 21% fat for one week before and up to 4 weeks after injury. Transluminal carotid artery injury was induced by 4 rotational passes of a 0.36-mm guide-wire. After 6 days of diet and one day before carotid injury, some mice (n=10 per group) were anesthetized and underwent implantation of a primed, 28-day osmotic pump (model 2004, Alza Corp) placed subcutaneously via transverse midscapular incision for continuous treatment with ATL (0.004 μg/kg per minute; 200 μL of 1% dimethyl sulfoxide in saline; kind gift from G. W. Sullivan and J. Linden, University of Virginia). Arteries were harvested by in situ perfusion fixation with 4% paraformaldehyde and embedded in paraffin. […]
Neointimal and medial areas were quantified in serial 5 μm sections of common carotid arteries within a standardized distance from the bifurcation (50-250 μm) stained with Movat pentachrome Areas within the external elastic lamina (EEL), internal elastic lamina (TEL) and lumen (L) were determined by computer-assisted planimetry (Diskus software, Hilgers). […] The relative content of macrophages in the neointima was determined in serial sections of the LCA within 300 μm from the bifurcation (6 per mouse, each 50 μm apart). […] Images were recorded using a Leica DMLB microscope and CCD camera. […]

[2] = test system: surface protein expression of VCAM-1 in aortic ECs; experiment: VCAM-1 surface protein expression in aortic ECs (flow cytometry); assay type: cell-based, mouse; settings: ATL-146e 10 μM for 6 hours
Protocol: Mouse aortal ECs were cultured as described. Six mL of type I rat tail collagen (4 mg/mL) combined with 0.1 M NaOH, 3.5 mL 3×DMEM and 5.25 mL of 1×DMEM supplemented with 30% FCS was aliquoted into a 24 well plate, allowed to gel at 37° C. for 1 hour and equilibrated overnight in complete EC medium: RPMI-1640 supplemented with 20% heat inactivated FCS, 2-mercaptoethanol (4 L/L), gentamicin (10 g/mL) and EC growth supplement (50 g/mL, BD Biosciences). Aortas from CD73^−/− or WT mice cut into circular rings were opened longitudinally and placed luminal side down onto the collagen gel. After 2 days, complete medium was added and changed every third day. After 10 days, aortic segments were removed and the collagen gel digested with 0.3% collagenase H. Then, ECs were grown in complete medium and used between passages 2-8. Some ECs were treated with ATL-146e (10 μM) for 6 hours. […]
For immunofluorescence, confluent ECs on glass chamber slides were fixed in methanol, permeabilized with 0.5% triton and reacted with p65 (C-20, Santa Cruz) or isotype control and FITC-conjugated secondary Ab (Boehringer Mannheim). […] After incubation for 30 min at RT, primary Ab binding was detected using a FITCconjugated secondary Ab (Boehringer Mannheim) and analyzed in a FACSCalibur (BD Biosciences). Specific mean fluorescence intensity was determined by subtracting isotype control staining.

[3] = test system: VCAM-1 mRNA expression in aortic ECs; experiment: VCAM-1 mRNA expression in cultured aortic ECs (PCR); assay type: cell-based, mouse; settings: CD73−/− ECs, ATL-146e 10 μM for 6 hours
Protocol: (§1) Mouse aortal ECs were cultured as described. Six mL of type I rat tail collagen (4 mg/mL) combined with 0.1 M NaOH, 3.5 mL 3×DMEM and 5.25 mL of 1×DMEM supplemented with 30% FCS was aliquoted into a 24 well plate, allowed to gel at 37° C. for 1 hour and equilibrated overnight in complete EC medium: RPMI-1640 supplemented with 20% heat inactivated FCS, 2-mercaptoethanol (4 L/L), gentamicin (10 g/mL) and EC growth supplement (50 g/mL, BD Biosciences). Aortas from CD73^−/− or WT mice cut into circular rings were opened longitudinally and placed luminal side down onto the collagen gel. After 2 days, complete medium was added and changed every third day. After 10 days, aortic segments were removed and the collagen gel digested with 0.3% collagenase H. Then, ECs were grown in complete medium and used between passages 2-8. Some ECs were treated with ATL-146e (10 μM) for 6 hours. Mono Mac 6 cells were maintained as described.
RNA was prepared using the RNAqzeous-Micro isolation kit (Ambion) and RNeasy Mini kit (Qiagen) and reverse-transcribed into cDNA using Mo-MLV RT (Invitrogen).

[4] = test system: arrest of Mono Mac 6 cells on aortic ECs; experiment: Adhesion assay: monocyte arrest on ECs under laminar flow; assay type: cell-based, mouse; settings: ATL-146e 10 μM for 6 hours
Protocol: as §1
Laminar flow assays were performed as described. ECs were perfused with Mono Mac 6 cells (0.5×10^6/mL) pre-treated with or without anti-VLA-4 (10 g/mL, Immunotech) at 1.5 dyn/cm^2. The numbers of firmly arrested and rolling cells were quantified after 4 min in multiple (>10) fields by analyzing images recorded by video microscopy, and expressed as cells/mm^2

Compound: CCNC(=O)[C@H]1O[C@@H](n2cnc3c(N)nc(C#CCC4CCC(C(=O)OC)CC4)nc32)[C@H](O)[C@@H]1O (stereo partly shown) [ATL-146e]
- neointimal hyperplasia in carotid arteries ([1]; CD73−/− mice, vs control CD73−/− mice): completely prevented neointimal hyperplasia
- neointima formation in carotid arteries ([1]; WT mice, vs control WT mice): significantly inhibited neointima formation
- surface protein expression of VCAM-1 ([2]; CD73−/− ECs): reversed the increased surface protein expression of VCAM-1
- surface protein expression of VCAM-1 ([2]; WT ECs): slightly diminished its expression
- VCAM-1 mRNA expression [3]: reduced the elevated VCAM-1 mRNA expression
- monocyte arrest ([4]; CD73−/− ECs): inhibition of the monocyte arrest
- monocyte arrest ([4]; WT ECs): not affected
